Source: US4210749A, “Substituted 1,2,4,5-tetrahydro-3H,3 benzazepines” (priority 1979, dated 1980)
Structures can show the parent of a compound that is named as a salt.

Tests used:
[1] = Mouse tail stimulation (MST), Table IV; format: in vivo; set-up: unit not given here; details: S.C.
sciatic block = experiment: Local anesthetic sciatic block, Table IV; format: in vivo; details: 1%
[2] = test system: isolated segments of guinea pig ileum (histamine); experiment: Antihistaminic activity: block of histamine in isolated segments of guinea pig ileum
morphine analgesia = format: in vivo, rat; details: for Narcotic antagonist potency relative to pentazocine: Table II
[3] = Narcotic antagonism I.P., Table IV; format: in vivo
[4] = test system: isolated segments of guinea pig ileum (acetylcholine); experiment: Anticholinergic activity: block of acetylcholine in isolated segments of guinea pig ileum
[5] = I.P. symptomatology (highest tolerated dose, median lethal dose), Table IV; format: in vivo; details: in vivo, ip; for MTD: read-out: HTD (highest tolerated dose)
in vivo [6] = experiment: in vivo
[7] = Analgesic activity, hot plate method; format: in vivo
in vivo [8] = experiment: in vivo; remark: listed apart in the source
[9] = Analgesic activity, writhing method; format: in vivo
[10] = Analgesic activity in hot plate and writhing tests, overall comparison; details: for Analgesic efficacy by route of administration: oral vs parenteral

Row | SMILES | MST (mouse tail stimulation) [1] | Local Anesthetic Sciatic Block (sciatic block) | Conc. for 50% block of Histamine [2] | Narcotic antagonist potency relative to pentazocine (morphine analgesia) | Narcotic Antagonism [3] | Conc. for 50% block of Acetylcholine [4] | LD50 [5] | MTD [5] | ED50 ([7]; ip) | ED50 ([7]; po) | ED50 ([9]; po) | ED50 ([9]; sc) | Analgesic efficacy by route of administration [10] | other results
1 | CC(C)=CCN1CCc2ccc(O)cc2CC1 [Example 4, 3-(3,3-Dimethylallyl)-7-hydroxy-1,2,4,5-tetrahydro-3H,3-benzazepine] | > 56 | Positive | 76 μg/20 ml | more potent antagonist than pentazocine | Positive | 120 μg/20 ml | 96 mg/kg | 30 mg/kg | – | – | – | – | – | –
2 | C=CCN1CCc2ccc(OC)cc2CC1 [Example 14, 3-Allyl-7-methoxy-1,2,4,5-tetrahydro-3H,3-benzazepine] | – | Positive | – | about equipotent to pentazocine | Positive | – | 80 mg/kg | 60 mg/kg | 42 mg/kg | > 178 mg/kg | > 178 mg/kg | > 56 mg/kg | – | NOAEL (in vivo [6]; po): 178 mg/kg; LD50 (in vivo [8]; po): > 1000 mg/kg
3 | COc1ccc2c(c1)CCN(C)CC2 [Example 18, 7-Methoxy-3-methyl-1,2,4,5-tetrahydro-3H,3-benzazepine] | – | – | – | – | Negative | – | 80 mg/kg | 25 mg/kg | 20 mg/kg | 140 mg/kg | > 180 mg/kg | > 32 mg/kg | active by the oral route | –
4 | CCCN1CCc2ccc(O)cc2CC1 [Example 23, 7-Hydroxy-3-n-propyl-1,2,4,5-tetrahydro-3H,3-benzazepine] | – | Positive | 75 μg/20 ml | – | Positive | > 1000 μg/20 ml | 50 mg/kg | 20 mg/kg | – | – | – | – | – | –
5 | COc1ccc2c(c1)CCN(CC=Cc1ccccc1)CC2 [Example 28, 7-Methoxy-3-(3-phenylallyl)-1,2,4,5-tetrahydro-3H,3-benzazepine] | 10 | – | – | about equipotent to pentazocine | Positive | – | 60 mg/kg | 20 mg/kg | > 18 mg/kg | 125 mg/kg | 120 mg/kg | > 18 mg/kg | active by the oral route | –
6 | COc1ccc2c(c1)CCN(CCN1CCN(c3ccccc3)CC1)CC2 [Example 31, 7-Methoxy-3-[2-(4-phenyl-1-piperazinyl)ethyl]-1,2,4,5-tetrahydro-3H,3-benzazepine] | 20 | Positive | – | – | Negative | – | 80 mg/kg | 30 mg/kg | ~8 mg/kg | ~80 mg/kg | > 100 mg/kg | – | – | Analgesic activity ranking [10]: most active compounds; Separation between effective dose and toxic or lethal doses [10]: greatest separation between effective dose and toxic or lethal doses; NOAEL (in vivo [6]; ip): 32 mg/kg; NOAEL (in vivo [6]; po): 100 mg/kg; LD50 (in vivo [8]; ip): ~80 mg/kg; LD50 (in vivo [8]; po): ~300 mg/kg
7 | c1ccc2c(c1)CCN(CC1CC1)CC2 [Example 37, 3-Cyclopropylmethyl-1,2,4,5-tetrahydro-3H,3-benzazepine hydrochloride] | 10 | – | 20 μg/20 ml | – | Negative | 540 μg/20 ml | 60 mg/kg | 10 mg/kg | 12 mg/kg | 37 mg/kg | 49 mg/kg | > 18 mg/kg | active by the oral route | Writhing test activity relative to pentazocine ([9]; oral route): approximately twice as active as pentazocine
8 | C=CCN1CC[C@]23c4c5ccc(O)c4O[C@H]2[C@@H](O)C=C[C@H]3[C@H]1C5 [Nalorphine, reference compound] | – | – | – | – | – | – | – | – | – | – | – | – | – | Antagonism of Morphine Analgesia, times more active than compounds listed above (morphine analgesia; rat, in vivo, sc): 20-100 times
